Among the data in patent US20050222173A1, “Triazolopyrimidines” (priority 2002, published 2005) are log.P values, retold here.

This data set is described as follows: logP determination by HPLC (EEC Directive 79/831 Annex V. A8). The conditions noted are these: HPLC, gradient method, acetonitrile/0.1% aqueous phosphoric acid.
For the molecule `Fc1cc(F)c(-c2c(Cl)nc3nc(Cl)nn3c2N2CCC(C(F)(F)F)CC2)c(F)c1` [Example 46], the log.P worked out at 5. The result for `CN(C)CCN(C)c1c(-c2ccc(F)cc2F)c(Cl)nc2nc(Cl)nn12` [Example 110] reads 1.51; that for `CCCN(CC1CCCO1)c1c(-c2ccc(F)cc2F)c(Cl)nc2nc(Cl)nn12` (stereo not shown) [Example 127], 4.29; that for `Fc1ccc(-c2c(Cl)nc3nc(Cl)nn3c2NCC(F)(F)F)c(F)c1` [Example 106], 3.19. The result for `CCCNc1c(-c2ccccc2Cl)c(Cl)nc2nc(Cl)nn12` [Example 33] reads 3.46; that for `CN(C)Nc1c(-c2ccccc2Cl)c(Cl)nc2nc(Cl)nn12` [Example 40], 3.18; that for `COc1nc2nc(Cl)c(-c3c(F)cc(F)cc3OC)c(NC(C)C(F)(F)F)n2n1` (stereo not shown) [Example 80], 3.18.

In turn, `Fc1cc(F)c(-c2c(Cl)nc3nc(Br)nn3c2N2CCOCC2)c(F)c1` [Example 49] yielded a log.P of 3.03. As for `CC(C)CC(C)Nc1c(-c2ccc(F)cc2F)c(Cl)nc2nc(Cl)nn12` (stereo not shown) [Example 109], the figure is 4.31; as for `COCCN(C)c1c(-c2c(F)cccc2Cl)c(Cl)nc2nc(Cl)nn12` [Example 148], 3.32; as for `CC1CCCN(c2c(-c3c(F)cc(F)cc3F)c(Cl)nc3nc(Cl)nn23)C1` (stereo not shown) [Example 88], 4.45. As for `CC(C)CNc1c(-c2c(F)cccc2Cl)c(Cl)nc2nc(Cl)nn12` [Example 139], the figure is 3.74; as for `CC(C)CN(N)c1c(-c2c(F)cc(F)cc2F)c(Cl)nc2nc(Cl)nn12` [Example 48], 3.67; as for `COCCNc1c(-c2c(F)cc(F)cc2F)c(Cl)nc2nc(Br)nn12` [Example 55], 2.99. As for `CCC(C)Nc1c(-c2c(F)cc(F)cc2F)c(Cl)nc2nc(Cl)nn12` (stereo not shown) [Example 74], the figure is 3.7; as for `Fc1cc(F)c(-c2c(Cl)nc3nc(Br)nn3c2NC2CCCC2)c(F)c1` [Example 60], 3.94. The molecule `C=CCN(CC)c1c(-c2c(F)cccc2Cl)c(Cl)nc2nc(Cl)nn12` [Example 137] gave a log.P of 4.16. As for `CC1CN(c2c(-c3c(F)cc(F)cc3F)c(Cl)nc3nc(Br)nn23)CC(C)O1` (stereo not shown) [Example 50], the figure is 3.72. Take `OCCNc1c(-c2c(F)cc(F)cc2F)c(Cl)nc2nc(Cl)nn12` [Example 24]: the log.P stood at 2.23.

In turn, `CCCN(CCOC)c1c(-c2ccc(F)cc2F)c(Cl)nc2nc(Cl)nn12` [Example 128] returned a log.P of 3.9. In the case of `CCC(C)Nc1c(-c2ccccc2Cl)c(Cl)nc2nc(Cl)nn12` (stereo not shown) [Example 70], the log.P stood at 3.79. Molecule `CC1CN(c2c(-c3c(F)cc(F)cc3F)c(Cl)nc3nc(Cl)nn23)CC(C)O1` (stereo not shown) [Example 6] showed a log.P of 3.72. In the case of `CC(C)C(C)Nc1c(-c2c(F)cccc2Cl)c(Cl)nc2nc(Cl)nn12` (stereo not shown) [Example 172], the log.P worked out at 4.09. As to `CCNc1c(-c2ccccc2Cl)c(Cl)nc2nc(Cl)nn12` [Example 29], the log.P was determined as 3.07.

Molecule `CCN(CC1CCCO1)c1c(-c2ccc(F)cc2F)c(Cl)nc2nc(Cl)nn12` (stereo not shown) [Example 121] gave a log.P of 3.87. The result for `CCC1=CCN(c2c(-c3c(F)cc(F)cc3F)c(Cl)nc3nc(Cl)nn23)CC1` [Example 91] reads 4.63. The result for `CC(C)(C)Nc1c(-c2c(F)cc(F)cc2F)c(Cl)nc2nc(Br)nn12` [Example 58] reads 3.9; that for `CN(CC1OCCO1)c1c(-c2ccc(F)cc2F)c(Cl)nc2nc(Cl)nn12` [Example 112], 3.14. The result for `CNc1c(-c2ccccc2Cl)c(Cl)nc2nc(Cl)nn12` [Example 36] reads 2.7; that for `FC(F)C(F)(F)CNNc1c(-c2ccccc2Cl)c(Cl)nc2nc(Cl)nn12` [Example 18], 3.59; that for `CC(C)Nc1c(-c2c(F)cc(F)cc2F)c(Cl)nc2nc(Cl)nn12` [Example 47], 3.36.
